Measurements as given in US20200278355A1, “CONJUGATED PROTEINS AND USES THEREOF” (THE SCRIPPS RESEARCH INSTITUTE, priority 2017, published 2020).

Target: T1, HA-NR0B1-WT binding to FLAG-SNW1 (Homo sapiens, UniProt P51843)
T1 construct: expressed in transfected cells; host or cells: HEK293T (pRK5-based plasmids)
Assay: Modified in vitro binding assay: HA-NR0B1-WT from compound-treated HEK293T cells binding to FLAG-SNW1
Assay type: cell-based
Conditions: HEK293T cells expressing HA-NR0B1-WT treated with compound, lysate binding to FLAG-SNW1
Protocol: FIG. 5A-FIG. 5G show covalent ligand targeting C274 disrupts NR0B1 protein complexes. […] Percentage of NR0B1 bound to SNW1 was normalized to vehicle (DMSO). A hit compound BPK-26 is marked in red. […] HEK293T cells expressing the indicated proteins were treated with BPK-29 or vehicle (3 h) prior to treatment with BPK-29yne (30 min). Immunoprecipiated proteins were analyzed by in-gel fluorescence-scanning and immunoblotting. […] HEK293T cells expressing HA-NR0B1-WT or HA-NR0B1-C274V proteins were treated with DMSO or BPK-29, after which lysates were generated and evaluated for binding to FLAG-SNW1, as shown in (B).
FIG. 11A-FIG. 11F illustrate a covalent ligand targeting Cys274 disrupts NR0B1 protein complexes. […] See also FIG. 5C. […] Top: Structures of screening hit BPK-28 and synthesized derivatives. […] FLAG-immunoprecipitates were prepared from each lysate and subjected to proteolytic digestion, whereupon tryptic peptides harboring C274 were analyzed by LC-MS/MS. […] Immunoprecipitates were analyzed by in-gel fluorescence-scanning to assess BPK-29yne labeling or by immunoblot for FLAG-NR0B1. […] In a modified in vitro binding assay shown in FIG. 5B, HEK293T cells expressing HA-NR0B1-WT or an HA-NR0B1-C274V mutant were treated with DMSO or BPK-26 (20 μM, 3 h), after which lysates were and interaction with FLAG-SNW1 assessed. […]

T1 sequence (P51843 whole entry): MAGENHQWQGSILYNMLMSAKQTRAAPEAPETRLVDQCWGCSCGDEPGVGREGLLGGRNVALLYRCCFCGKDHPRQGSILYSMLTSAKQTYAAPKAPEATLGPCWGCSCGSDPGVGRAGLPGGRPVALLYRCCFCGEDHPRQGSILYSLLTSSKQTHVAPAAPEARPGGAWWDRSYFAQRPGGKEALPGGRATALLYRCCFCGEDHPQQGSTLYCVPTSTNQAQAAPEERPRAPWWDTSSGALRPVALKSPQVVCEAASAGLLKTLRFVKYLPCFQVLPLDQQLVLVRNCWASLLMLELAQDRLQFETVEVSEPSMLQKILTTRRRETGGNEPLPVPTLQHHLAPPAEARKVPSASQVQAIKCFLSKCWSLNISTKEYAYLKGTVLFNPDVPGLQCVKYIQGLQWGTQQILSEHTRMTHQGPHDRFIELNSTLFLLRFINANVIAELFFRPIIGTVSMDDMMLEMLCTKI

SMILES: O=C(c1ccc(N2CCOCC2)cc1)N1CCCC(N(Cc2ccccc2)C(=O)CCl)CC1 (stereo not shown) [BPK-29, N-benzyl-2-chloro-N-(1-(4-morpholinobenzoyl)azepan-4-yl)acetamide]
- disruption of NR0B1-WT protein interactions (binding to FLAG-SNW1): disrupts protein interactions for NR0B1-WT
